Measured values reported in patent US9580430B2, “9H-pyrimido[4,5-B]indoles and related analogs as BET bromodomain inhibitors” (THE REGENTS OF THE UNIVERSITY OF MICHIGAN, priority 2014, dated 2017).

Columns and labels:
recombinant BRD4 BD2 = target: T1, recombinant BRD4 BD2 (Homo sapiens, UniProt O60885); assay: Competitive fluorescence-polarization (FP) binding assay, BRD4 BD2; conditions: competitive FP assay; protein 6 nM, probe […]; read-out: IC50 (nM) BRD4 BD2; note: probe 1.5 nM
T1 construct: for recombinant BRD4 BD1 and BRD4 BD2 proteins
In short: (§1)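 FP competition with FAM-labelled probe (ZBA248 or BRD-1F) against preincubated protein/probe complex; BD1 at 10 nM and BD2 at 6 nM final, in 100 mM potassium phosphate pH 6.5, 0.01% Triton X-100. 30 min, room temperature. IC50 by nonlinear regression; Ki also derived, using probe Kd from protein saturation.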

MOLM-13 = assay: Cell growth inhibition, MOLM-13 leukemia cells (CellTiter-Glo); format: cell-based; conditions: Homo sapiens, MOLM-13, 96 h; 4 days; read-out: IC50 (nM) MOLM-13 Cell Line (CellTiter-Glo assay)
Description: Cell growth inhibitory activity of representative Compounds of the Disclosure was determined using CellTiter-Glo® Luminescent Cell Viability Assay. […] Cell viability was determined using the CellTiter-Glo® Luminescent Cell Viability Assay Kit (Promega, Madison, Wis.) according to the manufacture's instruction. Briefly, a volume of CellTiter-Glo® Reagent equal to the volume of cell culture medium was added to each well, and then the plates were incubated at room temperature for 10-20 minutes. The luminescent signal was measured using a Tecan Infinite M1000 multimode microplate reader (Tecan, Morrisville, N.C.). The half maximal inhibitory concentration (IC50) was calculated using the GraphPad Prism 5 software (GraphPad Software, La Jolla, Calif.).

recombinant BRD4 BD1 = target: T2, recombinant BRD4 BD1 (Homo sapiens, UniProt O60885); assay: Competitive fluorescence-polarization (FP) binding assay, BRD4 BD1; conditions: competitive FP assay; protein 10 nM, probe […]; read-out: IC50 (nM) BRD4 BD1; note: probe 1.5 nM
T2 construct: for recombinant BRD4 BD1 and BRD4 BD2 proteins
In short: as §1

MDA-MB-436 = assay: Cell growth inhibition, MDA-MB-436 breast cancer cells (WST-8); format: cell-based; conditions: Homo sapiens, MDA-MB-436, 96 h; 4 days; read-out: IC50 (nM) MDA-MB-436 Cell Line (WST assay)
In short: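 IC50 was computed from WST-8-based cell counting in MDA-MB-436 cells, with absorbance read at 450 nm.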

IC50 (recombinant BRD4 BD2) [nM] | IC50 (MOLM-13) [nM] | IC50 (recombinant BRD4 BD1) [nM] | IC50 (MDA-MB-436) [nM] | Compound
2.3 | 6 | 4.3 | 7.8 | COc1cc2c(cc1-c1c(C)noc1C)[nH]c1nc(C)nc(Nc3c4c(nn3C)CCC4)c12 [Cpd. No. 122, 7-(3,5-Dimethylisoxazol-4-yl)-6-methoxy-2-methyl-N-(2-methyl-2,4,5,6-tetrahydrocyclopenta-[c]pyrazol-3-yl)-9H-pyrimido[4,5-b]indol-4-amine]
365 | 912 | 219 | 849 | COc1cc2c(cc1-c1c(C)noc1C)[nH]c1nc(C)nc(Nc3onc(C)c3C)c12 [Cpd. No. 219, N-(7-(3,5-dimethylisoxazol-4-yl)-6-methoxy-2-methyl-9H-pyrimido[4,5-b]indol-4-yl)-3,4-dimethylisoxazol-5-amine]
40.6 | 77.5 | 49.1 | 84.8 | COc1cc2c(cc1-c1c(C)noc1C)[nH]c1nc(C)nc(Nc3cc(C(F)(F)F)nn3C(C)C)c12 [Cpd. No. 22, 7-(3,5-Dimethylisoxazol-4-yl)-N-(1-isopropyl-3-(trifluoromethyl)-1H-pyrazol-5-yl)-6-methoxy-2-methyl-9H-pyrimido[4,5-b]indol-4-amine]
183 | 38.4 | 540 | 386 | COc1cc2c(cc1-c1c(C)noc1C)[nH]c1nc(C)nc(Sc3nnc(C)n3C(C)C)c12 [Cpd. No. 3, 4-(4-((4-Isopropyl-5-methyl-4H-1,2,4-triazol-3-yl)thio)-6-methoxy-2-methyl-9H-pyrimido[4,5-b]indol-7-yl)-3,5-dimethylisoxazole]
14.2 | 13.2 | 10.1 | 59.6 | COc1cc2c(cc1-c1c(C)noc1C)[nH]c1nc(C)nc(Nc3c(C(C)C)nn(C)c3C)c12 [Cpd. No. 194, 7-(3,5-dimethylisoxazol-4-yl)-N-(3-isopropyl-1,5-dimethyl-1H-pyrazol-4-yl)-6-methoxy-2-methyl-9H-pyrimido[4,5-b]indol-4-amine]
0.6 | 22.5 | 9 | 52.9 | COc1cc2c(cc1-c1c(C)noc1C)[nH]c1nc(C)nc(Nc3ccnn3C3CCCC3)c12 [Cpd. No. 178, N-(1-cyclopentyl-1H-pyrazol-5-yl)-7-(3,5-dimethylisoxazol-4-yl)-6-methoxy-2-methyl-9H-pyrimido[4,5-b]indol-4-amine]
28 | 103 | 54 | 211 | COc1cccc(Nc2nc(C)nc3[nH]c4cc(-c5c(C)noc5C)c(OC)cc4c23)c1 [Cpd. No. 213, 7-(3,5-dimethylisoxazol-4-yl)-6-methoxy-N-(3-methoxyphenyl)-2-methyl-9H-pyrimido[4,5-b]indol-4-amine]
29.5 | 41.9 | 5 | 58.3 | COc1cc2c(cc1-c1c(C)noc1C)[nH]c1nc(C)nc(Nc3nn(C)c4c3CCCC4)c12 [Cpd. No. 124, 7-(3,5-Dimethylisoxazol-4-yl)-6-methoxy-2-methyl-N-(1-methyl-4,5,6,7-tetrahydro-1H-indazol-3-yl)-9H-pyrimido[4,5-b]indol-4-amine]
121 | 113 | 165 | 115 | COc1cc2c(cc1-c1c(C)noc1C)[nH]c1nc(C)nc(Nc3ccnc4ccccc34)c12 [Cpd. No. 247, 7-(3,5-dimethylisoxazol-4-yl)-6-methoxy-2-methyl-N-(quinolin-4-yl)-9H-pyrimido[4,5-b]indol-4-amine]
56.5 | 131 | 44.9 | 222 | COc1cc2c(cc1-c1c(C)noc1C)[nH]c1nc(C)nc(Nc3cnn(C)c3C)c12 [Cpd. No. 170, N-(1,5-dimethyl-1H-pyrazol-4-yl)-7-(3,5-dimethylisoxazol-4-yl)-6-methoxy-2-methyl-9H-pyrimido[4,5-b]indol-4-amine]
3.4 | 17.7 | 4.2 | 25 | COc1cc2c(cc1-c1c(C)noc1C)[nH]c1nc(C)nc(Nc3cc(C)nn3C3CCCC3)c12 [Cpd. No. 118, N-(1-Cyclopentyl-3-methyl-1H-pyrazol-5-yl)-7-(3,5-dimethylisoxazol-4-yl)-6-methoxy-2-methyl-9H-pyrimido[4,5-b]indol-4-amine]
92.6 | 103 | 68.5 | 236 | COc1cc2c(cc1-c1c(C)noc1C)[nH]c1nc(C)nc(Nc3c(C)nn(C(C)C)c3C)c12 [Cpd. No. 36, 7-(3,5-dimethylisoxazol-4-yl)-N-(1-isopropyl-3,5-dimethyl-1H-pyrazol-4-yl)-6-methoxy-2-methyl-9H-pyrimido[4,5-b]indol-4-amine]
19.6 | 22.9 | 5.1 | 67 | COc1cc2c(cc1-c1c(C)noc1C)[nH]c1nc(C)nc(Nc3c(C)c(C)nn3C(C)C)c12 [Cpd. No. 81, 7-(3,5-dimethylisoxazol-4-yl)-N-(1-isopropyl-3,4-dimethyl-1H-pyrazol-5-yl)-6-methoxy-2-methyl-9H-pyrimido[4,5-b]indol-4-amine]
114 | 114 | 30.1 | 422 | COc1cc2c(cc1-c1c(C)noc1C)[nH]c1nc(C)nc(Nc3cc(C)nn3C3CC3)c12 [Cpd. No. 192, N-(1-cyclopropyl-3-methyl-1H-pyrazol-5-yl)-7-(3,5-dimethylisoxazol-4-yl)-6-methoxy-2-methyl-9H-pyrimido[4,5-b]indol-4-amine]
89 | 147 | 99 | 235 | COc1cc2c(cc1-c1c(C)noc1C)[nH]c1nc(C)nc(Nc3ccc(OC)c4ccccc34)c12 [Cpd. No. 100, 7-(3,5-dimethylisoxazol-4-yl)-6-methoxy-N-(4-methoxynaphthalen-1-yl)-2-methyl-9H-pyrimido[4,5-b]indol-4-amine]
69.9 | 357 | 70.1 | 511 | COc1cc2c(cc1-c1c(C)noc1C)[nH]c1nc(C)nc(Nc3c(C)cnn3C3CC3)c12 [Cpd. No. 197, N-(1-cyclopropyl-4-methyl-1H-pyrazol-5-yl)-7-(3,5-dimethylisoxazol-4-yl)-6-methoxy-2-methyl-9H-pyrimido[4,5-b]indol-4-amine]
28.7 | 32.7 | 30.2 | 97.6 | COc1cc2c(cc1-c1c(C)noc1C)[nH]c1nc(C)nc(Nc3cn(C)nc3C)c12 [Cpd. No. 34, N-(1,3-dimethyl-1H-pyrazol-4-yl)-7-(3,5-dimethylisoxazol-4-yl)-6-methoxy-2-methyl-9H-pyrimido[4,5-b]indol-4-amine]
52 | 74 | 41 | 146 | COc1cc2c(cc1-c1c(C)noc1C)[nH]c1nc(C)nc(Nc3cccc4c3cnn4C)c12 [Cpd. No. 235, 7-(3,5-dimethylisoxazol-4-yl)-6-methoxy-2-methyl-N-(1-methyl-1H-indazol-4-yl)-9H-pyrimido[4,5-b]indol-4-amine]
8 | 71 | 13 | 123 | COc1cc2c(cc1-c1c(C)noc1C)[nH]c1nc(C)nc(Nc3cccc(N(C)C)c3)c12 [Cpd. No. 230, N1-(7-(3,5-dimethylisoxazol-4-yl)-6-methoxy-2-methyl-9H-pyrimido[4,5-b]indol-4-yl)-N3,N3-dimethylbenzene-1,3-diamine]
